Assay results: DBAASP
In brackets after ≈: the same amount, converted by molar mass.

Assays:
Test in all cases: ≥ marks a high value that may be exact or a test limit, other limits are often not marked, values filed in µg/mL are converted to µM
Escherichia coli = test system: Escherichia coli
Staphylococcus aureus = test system: Staphylococcus aureus
Candida albicans = test system: Candida albicans
[1] = test system: Staphylococcus aureus ATCC 6538
[2] = test system: Pseudomonas aeruginosa ATCC 9027
Pseudomonas aeruginosa = test system: Pseudomonas aeruginosa
[3] = test system: Pseudomonas aeruginosa ATCC 27853
[4] = test system: Escherichia coli ATCC 25922
[5] = test system: Staphylococcus aureus ATCC 25923
Acinetobacter baumannii = test system: Acinetobacter baumannii
[6] = test system: Klebsiella pneumoniae ATCC 700603
[7] = test system: Acinetobacter baumannii ATCC 19606

SMILES | MIC (Escherichia coli) [µM] | MIC (Staphylococcus aureus) [µM] | MIC (Pseudomonas aeruginosa) [µM] | MIC [2] [µM] | also measured
CC[C@H](C)[C@H](NC(=O)[C@H](CCCCN)NC(=O)[C@H](CS)NC(=O)[C@H](C)NC(=O)[C@@H](NC(=O)[C@H](Cc1ccccc1)NC(=O)CNC(=O)[C@H](CC(C)C)NC(=O)CNC(=O)[C@@H](NC(=O)[C@H](CCCCN)NC(=O)[C@H](CCCCN)NC(=O)[C@H](CC(C)C)NC(=O)[C@H](CC(N)=O)NC(=O)[C@H](CCCCN)NC(=O)[C@H](CC(C)C)NC(=O)[C@@H](NC(=O)[C@H](CO)NC(=O)[C@H](CC(C)C)NC(=O)[C@H](CCSC)NC(=O)[C@@H](N)CO)C(C)C)C(C)C)C(C)C)C(=O)N[C@@H](CC(N)=O)C(=O)N[C@@H](CCCCN)C(=O)N[C@@H](CCC(N)=O)C(=O)N[C@@H](CS)C(=O)O [SMLSVLKNLKKVGLGFVACKINKQC] | 200 (≈ 544 µg/mL) | > 200 | – | – | MIC (Candida albicans): > 200 µM
CC(C)C[C@H](NC(=O)[C@@H](NC(=O)[C@H](CCCCN)NC(=O)[C@H](CCCCN)NC(=O)[C@H](C)NC(=O)[C@H](CC(C)C)NC(=O)[C@H](CCCCN)NC(=O)[C@H](C)NC(=O)[C@H](CC(C)C)NC(=O)[C@H](CC(C)C)NC(=O)[C@H](CCCCN)NC(=O)[C@H](C)NC(=O)[C@@H](N)Cc1ccccc1)C(C)C)C(N)=O [FAKLLAKLAKKVL] | – | – | – | 69.3 (≈ 99.9 µg/mL) | MIC [1]: 3.47 µM (≈ 5 µg/mL)
CC[C@H](C)[C@H](NC(=O)CNC(=O)[C@H](CCCCN)NC(=O)CNC(=O)[C@H](Cc1ccccc1)NC(=O)[C@H](C)NC(=O)[C@H](CC(C)C)NC(=O)[C@H](CCCCN)NC(=O)[C@H](C)NC(=O)[C@H](Cc1c[nH]c2ccccc12)NC(=O)[C@H](CC(C)C)NC(=O)[C@H](CCCCN)NC(=O)[C@H](C)NC(=O)[C@@H](N)Cc1ccccc1)C(=O)NCC(=O)N[C@@H](CCCCN)C(=O)N[C@H](C(=O)NCC(=O)N[C@@H](CCCCN)C(=O)N[C@@H](CCCCN)C(=O)N[C@@H](CC(C)C)C(=O)N[C@@H](CC(C)C)C(N)=O)C(C)C [FAKLWAKLAFGKGIGKVGKKLL] | – | – | – | 4.21 (≈ 10 µg/mL) | MIC [1]: 6.32 µM (≈ 15 µg/mL)
CC(C)C[C@H](NC(=O)CNC(=O)[C@@H]1CCCN1C(=O)[C@H](CCCCN)NC(=O)[C@H](CCCCN)NC(=O)[C@@H]1CCCN1C(=O)[C@H](CCCN=C(N)N)NC(=O)[C@H](CC(=O)O)NC(=O)[C@@H](N)CCCCN)C(=O)N[C@@H](CS)C(=O)N1CCC[C@H]1C(=O)N[C@@H](C)C(=O)N[C@@H](C)C(=O)N[C@@H](CCCCN)C(=O)N[C@@H](CCCCN)C(=O)N[C@@H](C)C(=O)N[C@@H](C)C(=O)N[C@@H](C)C(=O)N[C@@H](C)C(=O)N[C@@H](CCCCN)C(=O)N[C@@H](C)C(N)=O [KDRPKKPGLCPAAKKAAAAKA] | > 236 | 118 (≈ 250 µg/mL) | 58.9 (≈ 125 µg/mL) | – | MIC [3]: 29.5 µM (≈ 62.5 µg/mL); MIC [4]: 14.7 µM (≈ 31.2 µg/mL); MIC [5]: 118 µM (≈ 250 µg/mL); MIC (Candida albicans): 236 µM (≈ 500 µg/mL)
CC[C@H](C)[C@H](NC(=O)[C@H](Cc1c[nH]c2ccccc12)NC(=O)[C@H](CCCCN)NC(=O)[C@@H](NC(=O)[C@H](CC(C)C)NC(=O)[C@H](CO)NC(=O)[C@H](CCCCN)NC(=O)CN)C(C)C)C(=O)N[C@H](C(=O)N[C@@H](CCCCN)C(=O)N[C@@H](CO)C(=O)N[C@H](C(=O)N[C@@H](CCCN=C(N)N)C(=O)N[C@@H](CCCCN)C(=O)N[C@@H](C)C(N)=O)C(C)C)C(C)C [GKSLVKWIVKSVRKA] | – | – | – | > 25 | MIC [4]: > 25 µM; MIC (Acinetobacter baumannii): 25 µM (≈ 42.5 µg/mL); MIC [6]: > 25 µM; MIC [5]: > 25 µM
CC(C)C[C@H](NC(=O)[C@H](CCCCN)NC(=O)[C@H](C)NC(=O)[C@H](CC(C)C)NC(=O)[C@H](CC(C)C)NC(=O)[C@H](CCCCN)NC(=O)[C@H](C)NC(=O)[C@@H](N)Cc1ccccc1)C(=O)N[C@@H](C)C(=O)N[C@@H](CCCCN)C(N)=O [FAKLLAKLAK] | – | – | – | 181 (≈ 200 µg/mL) | MIC [1]: 45.4 µM (≈ 50 µg/mL)
CC[C@H](C)[C@H](NC(=O)[C@H](CCCN=C(N)N)NC(=O)[C@@H](NC(=O)[C@@H](NC(=O)[C@@H]1CCCN1C(=O)[C@@H](NC(=O)[C@@H](NC(=O)[C@@H](NC(=O)[C@@H]1CCCN1C(=O)CNC(=O)CNC(=O)[C@H](CCCCN)NC(=O)[C@H](CCCCN)NC(=O)[C@H](Cc1c[nH]c2ccccc12)NC(=O)[C@H](C)NC(=O)[C@H](CCCN=C(N)N)NC(=O)[C@H](CC(C)C)NC(=O)[C@@H](NC(=O)[C@H](CCCCN)NC(=O)[C@H](CCCN=C(N)N)NC(=O)CNC(=O)[C@H](CC(C)C)NC(=O)[C@H](CCCCN)NC(=O)[C@H](CCCN=C(N)N)NC(=O)[C@H](CC(C)C)NC(=O)CNC(=O)[C@@H](N)CCCCN)[C@@H](C)CC)[C@@H](C)CC)[C@@H](C)CC)C(C)C)[C@@H](C)CC)[C@@H](C)CC)C(=O)O [KGLRKLGRKILRAWKKGGPIIVPIIRI] | – | – | – | – | MIC [7]: 2.3 µM (≈ 7.07 µg/mL); MIC (Acinetobacter baumannii): 3.25 µM (≈ 10 µg/mL)
CSCC[C@H](NC(=O)[C@@H](NC(=O)[C@H](CCCN=C(N)N)NC(=O)[C@H](Cc1ccccc1)NC(=O)[C@H](C)NC(=O)[C@H](C)NC(=O)[C@H](CCCCN)NC(=O)[C@H](CCCN=C(N)N)NC(=O)[C@H](Cc1c[nH]c2ccccc12)NC(=O)[C@H](C)NC(=O)[C@@H]1CCCN1C(=O)[C@@H](N)CCCN=C(N)N)C(C)C)C(=O)N[C@@H](CCCN=C(N)N)C(=O)N[C@@H](C)C(=O)N[C@@H](CS)C(=O)N[C@H](C(N)=O)C(C)C [RPAWRKAAFRVMRACV] | – | – | 2.09 (≈ 4 µg/mL) | – | –
CC[C@H](C)[C@H](NC(=O)[C@H](CC(C)C)NC(=O)[C@H](Cc1cnc[nH]1)NC(=O)[C@@H](NC(=O)[C@@H](NC(=O)[C@@H](NC(=O)CNC(=O)[C@H](CC(C)C)NC(=O)[C@H](C)NC(=O)[C@H](C)NC(=O)[C@H](CCCCN)NC(=O)CNC(=O)[C@@H](NC(=O)[C@H](Cc1cnc[nH]1)NC(=O)[C@H](CCCCN)NC(=O)[C@@H](NC(=O)[C@@H](NC(=O)[C@H](CC(=O)O)NC(=O)[C@H](CC(C)C)NC(=O)[C@H](Cc1ccccc1)NC(=O)CN)C(C)C)[C@@H](C)CC)C(C)C)C(C)C)C(C)C)[C@@H](C)O)C(=O)N[C@@H](CC(N)=O)C(=O)N[C@@H](CCC(N)=O)C(N)=O [GFLDVIKHVGKAALGVVTHLINQ] | 26.3 (≈ 64 µg/mL) | 6.58 (≈ 16 µg/mL) | – | – | MIC (Candida albicans): 13.2 µM (≈ 32 µg/mL)
CC[C@H](C)[C@H](NC(=O)[C@H](CC(C)C)NC(=O)[C@H](CCC(N)=O)NC(=O)[C@@H](NC(=O)[C@H](CC(C)C)NC(=O)[C@H](CCCN=C(N)N)NC(=O)[C@H](CCCN=C(N)N)NC(=O)[C@@H](NC(=O)[C@H](C)NC(=O)[C@H](CCCCN)NC(=O)[C@H](CCCN=C(N)N)NC(=O)[C@@H](N)CC(C)C)[C@@H](C)O)C(C)C)C(=O)N[C@H](C(=O)N[C@@H](CO)C(=O)NCC(=O)O)C(C)C [LRKATRRLVQLIVSG] | – | – | – | > 25 | MIC [4]: > 25 µM; MIC (Acinetobacter baumannii): 25 µM (≈ 42.8 µg/mL); MIC [6]: > 25 µM; MIC [5]: > 25 µM
CC(C)C[C@H](NC(=O)CNC(=O)[C@@H](NC(=O)[C@@H]1CCCN1C(=O)[C@H](CC(C)C)NC(=O)CNC(=O)[C@H](CC(N)=O)NC(=O)[C@H](CC(N)=O)NC(=O)[C@H](Cc1c[nH]c2ccccc12)NC(=O)[C@@H](NC(=O)[C@H](CCCN=C(N)N)NC(=O)[C@H](CS)NC(=O)[C@H](CCCN=C(N)N)NC(=O)[C@H](Cc1cnc[nH]1)NC(=O)[C@H](CCCCN)NC(=O)[C@H](CCCCN)NC(=O)[C@H](CCCN=C(N)N)NC(=O)[C@@H](N)CCCCN)C(C)C)[C@@H](C)O)C(=O)N[C@@H](Cc1ccc(O)cc1)C(=O)N[C@@H](CCCN=C(N)N)C(=O)N[C@@H](Cc1c[nH]c2ccccc12)C(=O)N[C@@H](CS)C(N)=O [KRKKHRCRVWNNGLPTGLYRWC] | – | – | – | – | MIC [1]: 8 µM (≈ 22.2 µg/mL)

The next lines start with results.

MIC (Escherichia coli) [µM] | MIC (Staphylococcus aureus) [µM] | MIC (Pseudomonas aeruginosa) [µM] | SMILES | MIC [2] [µM] | also measured
3.74 (≈ 8 µg/mL) | 7.49 (≈ 16 µg/mL) | 7.49 (≈ 16 µg/mL) | CC(C)C[C@H](NC(=O)CNC(=O)[C@H](C)NC(=O)[C@H](CC(C)C)NC(=O)[C@H](CCCCN)NC(=O)[C@H](CCCCN)NC(=O)[C@H](C)NC(=O)[C@H](CC(C)C)NC(=O)CNC(=O)[C@H](C)NC(=O)[C@H](Cc1c[nH]c2ccccc12)NC(=O)[C@H](CCCCN)NC(=O)[C@H](CCCCN)NC(=O)[C@H](C)NC(=O)[C@H](CC(C)C)NC(=O)CNC(=O)[C@H](C)NC(=O)[C@H](CC(C)C)NC(=O)[C@@H](N)CCCCN)C(=O)N[C@@H](C)C(=O)N[C@@H](CCCCN)C(N)=O [KLAGLAKKWAGLAKKLAGLAK] | – | –
> 120 | > 120 | > 120 | CC(C)C[C@H](NC(=O)CNC(=O)[C@H](C)NC(=O)[C@H](CC(C)C)NC(=O)[C@H](CCCCN)NC(=O)[C@H](C)NC(=O)[C@H](CCCCN)NC(=O)[C@H](CC(C)C)NC(=O)CNC(=O)[C@H](C)NC(=O)[C@H](Cc1c[nH]c2ccccc12)NC(=O)[C@H](CCCCN)NC(=O)[C@H](C)NC(=O)[C@H](CCCCN)NC(=O)[C@H](CC(C)C)NC(=O)CNC(=O)[C@H](C)NC(=O)[C@H](CC(C)C)NC(=O)[C@@H](N)CCCCN)C(=O)N[C@@H](CCCCN)C(=O)N[C@@H](C)C(N)=O [KLAGLKAKWAGLKAKLAGLKA] | – | –
– | – | > 20.5 | CC[C@H](C)[C@H](NC(=O)[C@H](Cc1ccccc1)NC(=O)[C@H](CO)NC(=O)[C@H](CCCCN)NC(=O)[C@H](Cc1c[nH]c2ccccc12)NC(=O)[C@@H](N)CCCCN)C(=O)N[C@@H](CCCCN)C(=O)N[C@@H](CCCCN)C(=O)N[C@@H](CC(C)C)C(=O)N[C@H](C(=O)N[C@@H](CO)C(=O)N[C@@H](CCCCN)C(=O)N[C@@H](CCCCN)C(=O)N[C@@H](CC(C)C)C(=O)N[C@@H](Cc1cnc[nH]1)C(=O)N[C@@H](CO)C(=O)N[C@@H](C)C(=O)N[C@@H](CCCCN)C(=O)N[C@@H](CCCCN)C(=O)N[C@@H](Cc1ccccc1)C(N)=O)[C@@H](C)O [KWKSFIKKLTSKKLHSAKKF] | – | –
